Test results from the supplement of paper PMC6411743.

What follows are targets tested with Nc1ncnc2c1ncn2[C@@H]1O[C@H](COP(=O)(O)OP(=O)(O)OP(=O)(O)O)[C@@H](O)[C@H]1O [adenosine triphosphate] (assay: pEC50 of ATP-induced change in protein thermal stability (2D-TPP)).
Procedure: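 2D thermal proteome profiling in mechanically disrupted Jurkat crude lysate. Lysate was treated 10 min at room temperature with Na-ATP (0, 0.005, 0.05, 0.5, 2 mM), heated to 12 temperatures (42-63.9 °C) for 3 min, and soluble protein was quantified by TMT10 LC-MS/MS. pEC50 is the median over replicates of dose-response fits at the lowest temperature showing a fold change of at least 1.5 (FDR-controlled hits).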

UniProt Q8TBB5, sequence (Q8TBB5 whole entry): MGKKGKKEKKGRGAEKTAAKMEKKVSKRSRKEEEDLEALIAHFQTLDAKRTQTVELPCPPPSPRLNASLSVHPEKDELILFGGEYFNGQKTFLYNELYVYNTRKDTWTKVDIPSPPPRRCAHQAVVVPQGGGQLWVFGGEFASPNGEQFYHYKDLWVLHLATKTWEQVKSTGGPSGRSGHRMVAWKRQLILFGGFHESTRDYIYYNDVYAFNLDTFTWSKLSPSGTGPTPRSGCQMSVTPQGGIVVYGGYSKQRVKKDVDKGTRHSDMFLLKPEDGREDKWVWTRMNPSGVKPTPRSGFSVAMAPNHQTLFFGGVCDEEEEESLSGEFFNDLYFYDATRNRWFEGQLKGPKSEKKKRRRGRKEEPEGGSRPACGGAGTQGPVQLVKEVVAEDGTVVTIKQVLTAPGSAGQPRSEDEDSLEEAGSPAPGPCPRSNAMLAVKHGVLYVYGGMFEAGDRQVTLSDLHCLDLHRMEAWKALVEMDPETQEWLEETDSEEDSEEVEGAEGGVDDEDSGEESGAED
UniProt Q9Y478, sequence (Q9Y478 whole entry): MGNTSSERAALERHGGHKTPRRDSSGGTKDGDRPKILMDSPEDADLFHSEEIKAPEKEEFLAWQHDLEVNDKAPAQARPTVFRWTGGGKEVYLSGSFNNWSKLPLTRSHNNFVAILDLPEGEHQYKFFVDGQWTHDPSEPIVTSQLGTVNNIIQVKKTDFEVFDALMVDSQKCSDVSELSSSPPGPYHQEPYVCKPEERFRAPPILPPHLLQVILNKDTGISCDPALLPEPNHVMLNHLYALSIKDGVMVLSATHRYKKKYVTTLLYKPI
UniProt P78540, sequence (P78540 whole entry): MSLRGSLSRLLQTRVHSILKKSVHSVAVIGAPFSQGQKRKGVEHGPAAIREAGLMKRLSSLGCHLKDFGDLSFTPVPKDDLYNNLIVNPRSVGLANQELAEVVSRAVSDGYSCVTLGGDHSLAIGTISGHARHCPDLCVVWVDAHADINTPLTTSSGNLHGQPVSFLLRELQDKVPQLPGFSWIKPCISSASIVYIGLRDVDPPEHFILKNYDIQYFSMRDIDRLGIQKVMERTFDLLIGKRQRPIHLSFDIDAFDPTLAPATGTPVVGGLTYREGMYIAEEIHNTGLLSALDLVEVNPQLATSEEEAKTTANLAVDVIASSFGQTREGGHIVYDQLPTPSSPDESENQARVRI
UniProt Q6PGP7, sequence (Q6PGP7 whole entry): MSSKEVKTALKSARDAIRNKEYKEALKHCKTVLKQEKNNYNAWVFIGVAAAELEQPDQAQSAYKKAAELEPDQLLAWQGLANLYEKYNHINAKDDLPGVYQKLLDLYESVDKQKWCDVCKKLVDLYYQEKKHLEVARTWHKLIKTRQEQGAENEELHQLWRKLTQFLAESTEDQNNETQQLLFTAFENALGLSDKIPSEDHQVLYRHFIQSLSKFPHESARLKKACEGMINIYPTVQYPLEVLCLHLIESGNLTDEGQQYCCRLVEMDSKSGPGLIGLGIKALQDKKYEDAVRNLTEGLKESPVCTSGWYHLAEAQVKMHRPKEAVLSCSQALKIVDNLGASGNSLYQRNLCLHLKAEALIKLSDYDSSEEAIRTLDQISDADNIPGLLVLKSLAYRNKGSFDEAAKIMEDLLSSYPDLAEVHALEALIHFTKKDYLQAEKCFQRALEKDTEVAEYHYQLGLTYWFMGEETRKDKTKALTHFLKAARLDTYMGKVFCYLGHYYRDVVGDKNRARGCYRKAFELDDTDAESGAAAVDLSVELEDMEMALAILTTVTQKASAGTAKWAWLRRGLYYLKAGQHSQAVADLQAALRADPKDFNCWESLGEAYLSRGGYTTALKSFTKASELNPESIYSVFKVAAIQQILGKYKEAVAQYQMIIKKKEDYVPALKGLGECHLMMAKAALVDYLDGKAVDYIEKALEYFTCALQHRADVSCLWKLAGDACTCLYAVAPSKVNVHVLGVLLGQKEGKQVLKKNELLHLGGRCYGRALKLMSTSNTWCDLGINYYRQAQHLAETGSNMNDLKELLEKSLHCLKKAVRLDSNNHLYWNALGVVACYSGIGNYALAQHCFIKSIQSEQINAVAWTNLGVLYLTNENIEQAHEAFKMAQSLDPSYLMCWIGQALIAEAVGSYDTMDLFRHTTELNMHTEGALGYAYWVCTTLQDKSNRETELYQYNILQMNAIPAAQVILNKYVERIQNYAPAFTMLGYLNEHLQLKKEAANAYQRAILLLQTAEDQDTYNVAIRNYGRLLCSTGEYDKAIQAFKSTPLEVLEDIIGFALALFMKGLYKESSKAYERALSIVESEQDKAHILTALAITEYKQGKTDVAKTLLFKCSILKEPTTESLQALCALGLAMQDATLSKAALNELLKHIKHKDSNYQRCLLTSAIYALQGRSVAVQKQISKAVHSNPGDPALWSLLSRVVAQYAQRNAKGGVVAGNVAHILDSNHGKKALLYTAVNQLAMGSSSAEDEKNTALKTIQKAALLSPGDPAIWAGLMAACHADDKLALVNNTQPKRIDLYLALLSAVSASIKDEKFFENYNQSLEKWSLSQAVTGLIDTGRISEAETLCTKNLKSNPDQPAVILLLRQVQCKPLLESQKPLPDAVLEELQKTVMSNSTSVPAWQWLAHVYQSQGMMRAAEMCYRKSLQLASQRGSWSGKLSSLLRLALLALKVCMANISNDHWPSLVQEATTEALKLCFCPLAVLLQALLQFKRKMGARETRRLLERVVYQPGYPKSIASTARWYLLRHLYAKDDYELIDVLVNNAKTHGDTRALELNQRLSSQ
UniProt P82979, sequence (P82979 whole entry): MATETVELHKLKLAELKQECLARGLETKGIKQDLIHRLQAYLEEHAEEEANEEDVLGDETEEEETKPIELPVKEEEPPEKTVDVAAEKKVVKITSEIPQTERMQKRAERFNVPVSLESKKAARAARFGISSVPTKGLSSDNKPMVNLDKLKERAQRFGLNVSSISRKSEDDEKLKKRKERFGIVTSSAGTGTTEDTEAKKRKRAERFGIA
UniProt Q8TEM1, sequence (Q8TEM1 whole entry): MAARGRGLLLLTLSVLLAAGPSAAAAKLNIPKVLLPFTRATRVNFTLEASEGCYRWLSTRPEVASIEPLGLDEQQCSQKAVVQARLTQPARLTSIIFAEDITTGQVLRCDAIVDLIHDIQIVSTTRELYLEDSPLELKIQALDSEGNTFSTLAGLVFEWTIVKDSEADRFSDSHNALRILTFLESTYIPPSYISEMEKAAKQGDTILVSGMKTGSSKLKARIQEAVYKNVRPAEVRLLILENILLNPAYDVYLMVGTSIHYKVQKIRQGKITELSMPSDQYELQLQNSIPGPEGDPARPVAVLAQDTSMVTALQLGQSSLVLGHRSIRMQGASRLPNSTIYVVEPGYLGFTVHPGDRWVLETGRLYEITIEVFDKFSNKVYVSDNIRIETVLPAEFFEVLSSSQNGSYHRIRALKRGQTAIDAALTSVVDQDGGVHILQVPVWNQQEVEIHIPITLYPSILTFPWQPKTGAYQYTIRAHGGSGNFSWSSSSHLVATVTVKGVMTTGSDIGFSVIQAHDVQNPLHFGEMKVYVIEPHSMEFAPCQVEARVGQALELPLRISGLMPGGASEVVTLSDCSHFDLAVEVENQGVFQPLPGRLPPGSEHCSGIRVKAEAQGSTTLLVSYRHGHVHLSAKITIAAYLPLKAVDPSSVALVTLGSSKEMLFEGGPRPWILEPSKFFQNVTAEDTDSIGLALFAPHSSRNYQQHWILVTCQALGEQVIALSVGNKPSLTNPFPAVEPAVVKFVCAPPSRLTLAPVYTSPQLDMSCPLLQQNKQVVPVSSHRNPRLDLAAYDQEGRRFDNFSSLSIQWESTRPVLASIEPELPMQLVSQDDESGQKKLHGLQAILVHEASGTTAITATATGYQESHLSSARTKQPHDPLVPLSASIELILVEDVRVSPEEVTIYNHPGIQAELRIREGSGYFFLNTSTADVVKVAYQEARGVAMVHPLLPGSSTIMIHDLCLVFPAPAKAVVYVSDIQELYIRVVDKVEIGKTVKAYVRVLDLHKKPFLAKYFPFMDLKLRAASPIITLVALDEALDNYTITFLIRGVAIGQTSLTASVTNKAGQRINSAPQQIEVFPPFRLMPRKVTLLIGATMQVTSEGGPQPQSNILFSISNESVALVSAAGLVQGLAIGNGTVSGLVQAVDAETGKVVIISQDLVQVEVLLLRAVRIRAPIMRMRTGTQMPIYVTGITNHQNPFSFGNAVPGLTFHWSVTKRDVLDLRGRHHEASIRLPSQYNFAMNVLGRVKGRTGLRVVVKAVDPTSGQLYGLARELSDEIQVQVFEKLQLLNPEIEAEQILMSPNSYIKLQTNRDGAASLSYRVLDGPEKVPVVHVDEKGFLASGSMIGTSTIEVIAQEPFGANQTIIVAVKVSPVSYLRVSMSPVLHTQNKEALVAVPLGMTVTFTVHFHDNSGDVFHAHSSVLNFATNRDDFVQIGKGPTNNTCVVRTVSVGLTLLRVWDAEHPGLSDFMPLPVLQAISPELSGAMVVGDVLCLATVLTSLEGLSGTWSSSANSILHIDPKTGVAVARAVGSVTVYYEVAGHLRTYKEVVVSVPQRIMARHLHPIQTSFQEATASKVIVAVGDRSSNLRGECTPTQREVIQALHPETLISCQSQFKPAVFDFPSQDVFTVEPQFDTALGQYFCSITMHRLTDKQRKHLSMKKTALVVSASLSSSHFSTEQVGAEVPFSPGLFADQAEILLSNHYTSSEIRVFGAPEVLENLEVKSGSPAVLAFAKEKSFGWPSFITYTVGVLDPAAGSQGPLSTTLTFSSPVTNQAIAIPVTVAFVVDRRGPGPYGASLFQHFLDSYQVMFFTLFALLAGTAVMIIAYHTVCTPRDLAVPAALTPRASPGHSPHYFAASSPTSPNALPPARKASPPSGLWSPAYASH
UniProt Q9BUL8, sequence (Q9BUL8 whole entry): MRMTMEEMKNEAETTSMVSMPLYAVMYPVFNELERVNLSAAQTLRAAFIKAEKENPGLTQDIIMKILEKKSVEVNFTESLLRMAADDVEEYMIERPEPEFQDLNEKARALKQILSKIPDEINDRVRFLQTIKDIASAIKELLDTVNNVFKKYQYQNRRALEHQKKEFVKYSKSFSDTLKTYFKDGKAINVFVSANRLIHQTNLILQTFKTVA

| Target | pEC50 |
| --- | --- |
| RPL14 (effect direction: destabilized) (UniProt P50914) | 3.99 |
| APRT (effect direction: destabilized) (UniProt P07741) | 4.41 |
| CCNB2 (effect direction: stabilized) (UniProt O95067) | 4.13 |
| YARS (effect direction: stabilized) (UniProt P54577) | 3.25 |
| UniProt Q12905 (effect direction: stabilized) | 2.84 |
| UniProt Q9UH99 (effect direction: stabilized) | 3.34 |
| RAD51 (effect direction: stabilized) (UniProt Q06609) | 3.65 |
| PLCG1 (effect direction: stabilized) (UniProt P19174) | 2.94 |
| PGD (effect direction: stabilized) (UniProt P52209) | < 2.7 |
| DHX36 (effect direction: stabilized) (UniProt Q9H2U1) | 3.99 |
| PRKAR2A (effect direction: stabilized) (UniProt P13861) | 4.03 |
| POLR2C (effect direction: destabilized) (UniProt P19387) | 3.72 |
| JMJD6 (effect direction: stabilized) (UniProt Q6NYC1) | 3.21 |
| PUS7 (effect direction: stabilized) (UniProt Q96PZ0) | < 2.7 |
| ATP11B (effect direction: stabilized) (UniProt Q9Y2G3) | 4.15 |
| EHD4 (effect direction: stabilized) (UniProt Q9H223) | 3.86 |
| CACYBP (effect direction: stabilized) (UniProt Q9HB71) | 2.95 |
| UniProt O60524 (effect direction: destabilized) | 3.06 |
| ACADM (effect direction: stabilized) (UniProt P11310) | < 2.7 |
| EXOC2 (effect direction: stabilized) (UniProt Q96KP1) | 3 |
| UniProt P52434 (effect direction: stabilized) | < 2.7 |
| MOCS3 (effect direction: stabilized) (UniProt O95396) | 3.95 |
| GRAP (effect direction: stabilized) (UniProt Q13588) | 3.54 |
| UniProt Q9NYV4 (effect direction: stabilized) | 2.75 |

| Target | pEC50 |
| --- | --- |
| YARS2 (effect direction: stabilized) (UniProt Q9Y2Z4) | 3.97 |
| PDCD10 (effect direction: stabilized) (UniProt Q9BUL8) | 3.17 |
| FTSJ3 (effect direction: destabilized) (UniProt Q8IY81) | 3.22 |
| UniProt O95071 (effect direction: stabilized) | 3.27 |
| UniProt Q15149 (effect direction: stabilized) | 2.72 |
| UniProt Q8NI60 (effect direction: stabilized) | 3.73 |
| GTF2I (effect direction: stabilized) (UniProt P78347) | 3.28 |
| ABCB8 (effect direction: stabilized) (UniProt Q9NUT2) | 3.5 |
| ABCC1 (effect direction: stabilized) (UniProt P33527) | 3.46 |
| NAP1L1 (effect direction: stabilized) (UniProt P55209) | < 2.7 |
| MSI2 (effect direction: stabilized) (UniProt Q96DH6) | < 2.7 |
| SDAD1 (effect direction: destabilized) (UniProt Q9NVU7) | < 2.7 |
| RIOK1 (effect direction: stabilized) (UniProt Q9BRS2) | 3.11 |
| AHSA1 (effect direction: stabilized) (UniProt O95433) | < 2.7 |
| TUBA1C (effect direction: stabilized) (UniProt Q9BQE3) | 3.5 |
| IMPDH1 (effect direction: stabilized) (UniProt P20839) | 3.32 |
| DDX19A (effect direction: stabilized) (UniProt Q9NUU7) | 3.75 |
| UniProt P49591 (effect direction: stabilized) | < 2.7 |
| NUP85 (effect direction: stabilized) (UniProt Q9BW27) | < 2.7 |
| UniProt P60842 (effect direction: stabilized) | 3.47 |
| COPS5 (effect direction: stabilized) (UniProt Q92905) | < 2.7 |
| TTC37 (effect direction: stabilized) (UniProt Q6PGP7) | 3.19 |
| UniProt Q14240 (effect direction: stabilized) | 3.54 |
| DRAP1 (effect direction: destabilized) (UniProt Q14919) | < 2.7 |

| Target | pEC50 |
| --- | --- |
| SARNP (effect direction: destabilized) (UniProt P82979) | 3.18 |
| RAP1GDS1 (effect direction: stabilized) (UniProt P52306) | < 2.7 |
| CCT6A (effect direction: stabilized) (UniProt P40227) | 4.38 |
| UniProt O94826 (effect direction: stabilized) | 3.14 |
| SPG7 (effect direction: stabilized) (UniProt Q9UQ90) | 4.48 |
| SMC4 (effect direction: stabilized) (UniProt Q9NTJ3) | 3.54 |
| UniProt P78356 (effect direction: stabilized) | 2.83 |
| UniProt P51812 (effect direction: stabilized) | 3.89 |
| ADK (effect direction: stabilized) (UniProt P55263) | 3.82 |
| UniProt Q14562 (effect direction: stabilized) | 3.56 |
| FAF1 (effect direction: stabilized) (UniProt Q9UNN5) | 2.79 |
| CTSA (effect direction: stabilized) (UniProt P10619) | 3.12 |
| PCID2 (effect direction: stabilized) (UniProt Q5JVF3) | 3.02 |
| PAPSS1 (effect direction: stabilized) (UniProt O43252) | 3.65 |
| COPS6 (effect direction: stabilized) (UniProt Q7L5N1) | < 2.7 |
| TMEM173 (effect direction: stabilized) (UniProt Q86WV6) | 3.26 |
| PES1 (effect direction: destabilized) (UniProt O00541) | 3.49 |
| ARG2 (effect direction: destabilized) (UniProt P78540) | 3.17 |
| EPS15L1 (effect direction: destabilized) (UniProt Q9UBC2) | 2.94 |
| KLHDC4 (effect direction: stabilized) (UniProt Q8TBB5) | < 2.7 |
| UTP15 (effect direction: destabilized) (UniProt Q8TED0) | 2.92 |
| G6PD (effect direction: stabilized) (UniProt P11413) | < 2.7 |
| NARS2 (effect direction: stabilized) (UniProt Q96I59) | 4.1 |
| EPRS (effect direction: destabilized) (UniProt P07814) | 4.04 |

| Target | pEC50 |
| --- | --- |
| GPD1L (effect direction: stabilized) (UniProt Q8N335) | 3.09 |
| UniProt Q16181 (effect direction: stabilized) | < 2.7 |
| UniProt Q9BXW7 (effect direction: destabilized) | 3.84 |
| SUPV3L1 (effect direction: stabilized) (UniProt Q8IYB8) | 3.12 |
| PIP4K2A (effect direction: stabilized) (UniProt P48426) | 2.72 |
| EEF1G (effect direction: stabilized) (UniProt P26641) | < 2.7 |
| TTF2 (effect direction: stabilized) (UniProt Q9UNY4) | 3.17 |
| SNX2 (effect direction: stabilized) (UniProt O60749) | < 2.7 |
| NUP210 (effect direction: stabilized) (UniProt Q8TEM1) | < 2.7 |
| GRPEL1 (effect direction: destabilized) (UniProt Q9HAV7) | 4.04 |
| UniProt Q9Y6E0 (effect direction: stabilized) | 3.56 |
| ITPK1 (effect direction: stabilized) (UniProt Q13572) | 3.89 |
| PRKAB1 (effect direction: stabilized) (UniProt Q9Y478) | 3.22 |
| UniProt Q92841 (effect direction: stabilized) | 3.79 |
| PTAR1 (effect direction: stabilized) (UniProt Q7Z6K3) | < 2.7 |
| RB1 (effect direction: stabilized) (UniProt P06400) | 3.07 |
| VTN (effect direction: destabilized) (UniProt P04004) | 3.24 |
| SWAP70 (effect direction: stabilized) (UniProt Q9UH65) | < 2.7 |
| UniProt Q15208 (effect direction: stabilized) | 3.24 |
| CRLF3 (effect direction: stabilized) (UniProt Q8IUI8) | < 2.7 |
| UniProt P45984 (effect direction: stabilized) | 3.14 |
